Positions of bridges follow the written chain, without caps; N, C: chain ends. Non-standard residues stand in square brackets, D forms with d. Residues, ends and D or L forms follow the SMILES beside them. Chains are numbered I, II in the order given. Gly(N-piperonyl) = O=C(O)CNCc1ccc2c(c1)OCO2; N(4-MeOBn)Gly = COc1ccc(CNCC(=O)O)cc1; Nrpe = C[C@@H](NCC(=O)O)c1ccccc1; Nlys = NCCCCNCC(=O)O; βAla = NCCC(=O)O
Assays:
[1] = Propidium iodide test of cell lysis; format: cell-based; details: non-permeabilized cells
[2] = test system: tumor vascular endothelium of subcutaneous HCC4017 tumors; experiment: In vivo vascular disrupting effect; design: species or system mice; details: 20 μg i.v., 24 hours
Procedure: The in vivo vascular disrupting effects of PPS1-D2 were explored. Mice bearing HCC4017 tumors growing subcutaneously were injected i.v. with 20 μg of PPS1-D2. Twenty four hours later, the tumors were removed, cryosectioned, and stained for CD31 to detect vascular endothelium. […] This dose can be calculated to give an initial blood concentration that is roughly 10-fold higher than needed for maximal lysis of PS-expressing cell in vitro.

[3] = Toxicity of PPS1-D2 to mice; format: in vivo
[4] = complexes with beta2-glycoprotein 1; cited from earlier work
breast cancer = details: cited from earlier work
[5] = test system: non-small cell lung cancer (NSCLC); details: in combination with carboplatin and paclitaxel (11/17); cited from earlier work
[6] = test system: HCC4017, H460, HCC95, H1693, H1395 lung cancer cell lines; experiment: Cell staining with Hoechst 33342 and propidium iodide (membrane integrity); format: cell-based, human; details: 0.005% Benzalkonium chloride
Procedure: It was evaluated how PPS1D1 affects viability of these PS expressing cancer cell lines. While there are difficulties of narrowing down the exact mechanism of action of a compound targeting cell membrane lipids, whether PPS1D1 has any effect on cell membrane integrity was evaluated. Cells were treated with standard DNA staining dyes Propidium iodide (PI) and Hoechst 33342. While both bind DNA, only Hoechst is cell permeable. Therefore, when treating live cells only Hoechst will stain the nucleus while PI will stain the nucleus only if the cell membrane integrity is compromised. All the lung cancer cell lines and normal HBEC30KT cells were treated with these dyes in the presence of PPS1D1 (at 1 μM and 20 μM) or a control compound PC462D1 at 20 μM and evaluated fluorescence by microscopy without fixation. […] These observations indicate that 20 μM PPS1D1 is selectively cytotoxic to PS-positive lung cancer cells.
10,000 cells of HCC4017, H460, HCC95, H1693,H1395 and HBEC30KT were plated on chamber slides (Lab-Tek, Thermo Fisher, MA). On second day, cells were treated with PPS (1 μM and 20 μM), control PC462D1 (20 μM) and 0.005% Benzalkonium chloride (BAC) in RPMI medium with 10% FBS containing 3% BSA (KSFM media with 3% BSA for HBEC30KT). Chamber slides were washed with PBS three times. Cells were then stained with Hoechst 33342 (10 μg/ml) for 30 min in dark. Chamber slides were washed with 3× PBS. Cells were then stained with propidium iodide (1 mg/ml) for 15 mins. Cells were washed with 3× PBS and imaged using Fluorescence Microscope (Olympus BX-53).

[7] = Annexin V competition on lipid ELISA; format: binding; details: ELISA-like, 100 nM Annexin V
Procedure: (§1) Multiple competition assays were conducted to determine whether PPS1 (or PPS1D1) competes with Annexin V, a known PS binding agent. […] Competition between Annexin V and PPS1 for binding to PS in liposomes using flow cytometry was evaluated. […] However, PPS1 directly binds PS. Also, PS-ligand binding may be much more complex than that of a typical protein-ligand binding. Typical protein ligand binding occurs via a defined binding pocket, which facilitates clear competition by other ligands that interact with the same binding pocket. But PS is a lipid in a fluid membrane, which has no defined macromolecular structure further complicating possible binding modes.
Lipids (Avanti Polar Lipids) were dissolved in chloroform at 10 μg/ml and coated on to Immulon 1B “U” bottom microtiter plates (ThermoFisher, MA). Chloroform was evaporated at room temp (in the hood) and plates were blocked with 200 μl of 1% BSA for 1 hour. Plates were washed with 3× PBS. Biotinylated PPS1D1 dissolved in blocking buffer was added and incubated for 1 hour at room temp. Plates were washed with 3× PBS and 2× Annexin binding buffer. […] Binding was detected with streptavidin-HRP (1:1000 in blocking buffer) followed by 100 μl OPD (Sigma-Aldrich, MO). The reaction was stopped with 100 μl 0.18M H2SO4 and absorbance was read at 490 nm using the spectrophotometer (Spectramax i3, Molecular Devices, CA).

[8] = Annexin V / PPS1 competition on liposomes by flow cytometry; format: binding; details: unlabeled Annexin V 50 nM
Procedure: as §1
Unlabeled Annexin V vs FITC-PPS1 competition. 0.1 mM liposomes (85 mol % POPC, 15 mol % DOPS) were incubated with incubated with 50 nM Annexin V in Binding Buffer (0.01 M HEPES/NaOH (pH 7.4), 0.14 M NaCl, and 2.5 mM CaCl2) with 3% BSA for lhour. FITC PPS1 was added and the solution was incubated for 1 hour at room temperature. The binding of FITC-PPS1 to liposomes was analyzed by BD Accuri™ C6 flow cytometer (Becton-Dickinson, NJ). All data were analyzed using BDAccuriC6 software.
Unlabeled PPS1 vs FITC-Annexin V competition. […] The binding of FITC-Annexin V to liposomes was analyzed by BD Accuri™ C6 flow cytometer (Becton-Dickinson, NJ). All data were analyzed using BDAccuriC6 software.

[9] = On-bead competition assay; format: binding; details: Annexin V at 10, 50 and 100 nM
Procedure: Experimental procedure 12: On-bead competition assay. PPS1 and PC462 were synthesized on Tentagel beads. Organic solvent was removed and the beads were washed with 3 times with PBS. The beads were then incubated with PBS containing 3% BSA for 1 hour at room temperature. These beads were then incubated with 0.1 mM liposomes (84 mol % POPC, 15 mol % DOPS and 1 mol % NBD) for 2 hours at room temperature. Beads containing liposomes were the washed with binding buffer 3 times. […] Beads were then washed with binding buffer and imaged using fluorescence Microscope (Olympus BX-53).

[10] = calcium-dependent; cited from earlier work
H460 xenografts = experiment: Inhibition of growth of H460 lung cancer xenograft; format: in vivo, mice
Procedure: Whether PPS1D1 would inhibit tumor growth in a murine model was examined. H460 cells were implanted in nude mice. Tumors were allowed grow until it reach […]. These xenografts were then treated with a daily dose of […] in four different groups that consist of PPS1D1 alone, docetaxel alone, PPS1D1 and docetaxel together or with the control peptoid (PC462D1) alone. Docetaxel is a standard chemotherapeutic treatment for non-small cell carcinoma. The activity of PPSD1 and its ability to work as a combination treatment were examined. […] This effect was extremely potent and the tumor growth was completely controlled. […] It has been reported that chemotherapy and radiation therapy increase the PS flipping in tumor microenvironment. Therefore, Docetaxel might have helped improve binding of PPS1D1 on cancer cell surface that is now displaying an increased amount of PS to be targeted. After the standard chemotherapy and radiation therapy, the target PS is highly abundant for the drug to recognize and attack.
The effect of PPS1D1 on the growth of H460 xenografts implanted in NOD/SCID immunodeficient mice was examined. Immunodeficient animals were chosen to facilitate the growth of human tumor xenografts. […] Therapy with a control peptoid (PC462D1, 0.25 mg/mouse, 3×/week ip), PPS1D1 (0.25 mg/mouse, 3×/week ip), docetaxel (0.5 mg/kg, 2×/week, ip) or the combination of PPS1D1+docetaxel was initiated when tumors were ˜100 mm3 in volume. […] Tumor tissue was harvested after 4 weeks of therapy and assessed for cell proliferation and apoptosis by immunohistochemistry. […] It is clear from studies with bavituximab that standard chemotherapy (e.g., taxanes) increases the exposure of PS resulting in elevated binding of the PS targeting agent. A similar mechanism can underlie the enhanced activity of docetaxel and PPS1D1.
All animals were housed in a pathogen-free facility with continuous access to food and water. Mice were purchased from the core breeding facility at UT Southwestern. Six to eight-week-old female NOD/SCID mice were injected with 2.5×10^6 H460 cells subcutaneously. Tumor volume was followed by twice weekly measurements with Vernier calipers. Animals were randomized and treatment was initiated with mean tumor volume of each group was 100 mm3. Four different groups used were: (I) control PC462D1, (II) PPS1D1, (III) docetaxel, and (IV) combination of PPS1D1+docetaxel. Mice (n=8/group) were treated with PPS1D1 or PC462D1 in saline by ip injection at a dose of 0.25 mg/mouse, 3 times per week on a M-W-F schedule. Docetaxel from the UT Southwestern Clinical pharmacy was diluted in saline and delivered 2×/week ip at 5 mg/kg. Animals were sacrificed after 4 weeks of therapy. Tumor tissue was snap frozen, sectioned and stained with antibodies specific for phospho-Histone H3 (Millipore, #06-570) and cleaved caspase 3 (Cell Signaling, #9664). Reactivity was developed with appropriate fluorescently conjugated secondary antibodies (Jackson ImmunoResearch) and mounted with Prolong Gold with DAPI (Invitrogen), coverslipped and evaluated by fluorescence microscopy.

COc1ccc(CN(CC(=O)N(CCCCN)CC(=O)N[C@@H](CCCCN)C(=O)N[C@H](CCCCN)C(=O)N[C@@H](CCSC)C(=O)NCCC(=O)NCCCC[C@H](NC(=O)CCNC(=O)[C@H](CCSC)NC(=O)[C@@H](CCCCN)NC(=O)[C@H](CCCCN)NC(=O)CN(CCCCN)C(=O)CN(Cc2ccc(OC)cc2)C(=O)CN(C(=O)CN(Cc2ccc3c(c2)OCO3)C(=O)CN[C@H](C)c2ccccc2)[C@H](C)c2ccccc2)C(N)=O)C(=O)CN(C(=O)CN(Cc2ccc3c(c2)OCO3)C(=O)CN[C@H](C)c2ccccc2)[C@H](C)c2ccccc2)cc1 [PPS1-D2] (I: H-[Nrpe][Gly(N-piperonyl)][Nrpe][N(4-MeOBn)Gly][Nlys]K[dK]M[βAla]K-NH2 / II: H-[Nrpe][Gly(N-piperonyl)][Nrpe][N(4-MeOBn)Gly][Nlys]K[dK]M[βAla]; amide I:10-II:C; N-terminus assumed)
nuclear staining by propidium iodide [1]: nuclear staining happens only when PPS1-D2 is treated | disruption of tumor vascular endothelium (CD31) [2]: disrupted tumor endothelium | signs of toxicity ([3]; mice treated with 50 μg): no signs of toxicity | MTD ([3]; mouse, in vivo): 2 to 4 mg/kg

Bavituximab: human-mouse chimeric antibody targeting PS via beta2-glycoprotein 1
Kd [4]: 0.4 nM | objective response (breast cancer; combination of bavituximab and docetaxel, phase II (28/46)): 61% | objective response [5]: 65%

Benzalkonium chloride [BAC, reference compound]
PI staining of cells [6]: PI-positive nuclei

Annexin V: 35.8 kDa protein that binds PS in a calcium-dependent manner
competition with PPS1D1 for binding to PS [7]: did not compete | competition with FITC-PPS1 binding to liposomes [8]: did not compete | removal of liposomes from PPS1 beads [9]: None of these conditions were able to remove liposomes from beads | affinity for PS [10]: nanomolar affinity

CC(=O)O[C@@]12CO[C@@H]1C[C@H](O)[C@@]1(C)C(=O)[C@H](O)C3=C(C)[C@@H](OC(=O)[C@H](O)[C@@H](NC(=O)OC(C)(C)C)c4ccccc4)C[C@@](O)([C@@H](OC(=O)c4ccccc4)[C@H]21)C3(C)C [docetaxel, reference compound]
tumor growth (tumor volume vs days post therapy initiation) (H460 xenografts; H460 in NOD/SCID mice, peptoids 0.25 mg/mouse 3x/week ip, docetaxel 0.5 mg/kg 2x/week ip): slowed tumor growth | tumor size reduction (H460 xenografts; H460 in nude mice, daily dose of 0.5 mg/mL): equally effective in reducing the size of the tumors | response rate (breast cancer; docetaxel alone, separate study): 41%

Reference: patent US10849875B2, “Cancer specific lipid targeted peptidomimetics” (University of Houston System, priority 2015, dated 2020)
